# Test system: Mv1Lu cells
# Assay: [Methyl-3H]-thymidine incorporation assay, TGF-β2-induced growth inhibition
# Format: cell-based, mink
# From the text: The levels of TGF ? β and ? 2M* also increase dramatically. α2M* is capable of inhibiting TGF- ? activity by forming complexes with TGF- ? and thus preventing it from binding to TGF ? β receptors in cells involved. Fatty acids may potentiate TGF ? β activity by blocking complex formation of ? 2M* and TGF ? β under these conditions. To test this possibility, we determined the effects of arachidonic acid on ^125I-TGF- ? 2 binding (in the presence and absence of α2M*) to Mv1Lu cells. ? 2M* is known to inhibit TGF- ? 2 more strongly than TGF ? β1 binding to T receptors in cells (13). Various concentrations of ^125I-TGF- ? 2 were preincubated with 200 μg/ml of ? 2M* in the presence or absence of 30 μM arachidonic acid for 30 min prior to the performance of binding assays in Mv1Lu cells. […] The residual ^125I-TGF- ? binding associated with the cells after ? 2M* inhibition was mainly due to non-specific binding of ^125I-TGF- ? 2. […] In the presence of 200 μg/ml of ? 2M*, the dose-response curve of TGF ? β2 shifted to the right. […] Addition of arachidonic acid at 0.5 and 1 μM reversed the inhibitory effect of. α2M* on TGF- ? 2-induced growth inhibition as measured by [methyl-^3H]-thymidine incorporation.
# [Methyl-^3H]-Thymidine Incorporation Assay—Mv1Lu cells were plated at a cell density of 7.5×10^4 cells/well in DMEM containing 0.1% fetal calf serum in 48-well cluster dishes. After 4 hr at 37° C. (to allow cell adherence), cells were treated with various concentrations of TGF- ? 2,2M* (0 or 200 μg/ml) and arachidonic acid ([…] or 1 μM). After 1h at 37° C., cells were pulsed with 1 μCi/ml [methyl-^3H]-thymidine for 2 hr. The [methyl-^3H]-th incorporation into cellular DNA was carried out in triplicate as described previously (23).
smiles,measurement,setting,value
CCCCC/C=C\C/C=C\C/C=C\C/C=C\CCCC(=O)O [arachidonic acid],reversal of the inhibitory effect of α2M* on TGF-β2-induced growth inhibition,"0.5 μM arachidonic acid, 200 μg/ml α2M*",reversed
same,reversal of the inhibitory effect of α2M* on growth inhibition induced by 1 pM TGF-β2,"1 μM arachidonic acid, 200 μg/ml α2M*",almost completely reversed
same,effect on growth inhibition induced by TGF-β2 in the absence of α2M*,absence of α2M*,did not affect growth inhibition

# Reference: patent US20040229791A1, “Compositions and methods of modulating TGF-beta activity by fatty acids” (priority 2002, published 2004)
